# Experimental data reported in the Deep4Chem optical property database.
# Experiment: solvent given as SMILES
# [1] = in O=P(c1ccccc1)(c1ccccc1)c1ccc2oc3ccc(P(=O)(c4ccccc4)c4ccccc4)cc3c2c1
# [2] = in c1ccc2c(c1)c1ccccc1n2-c1ccc(-c2ccc(-n3c4ccccc4c4ccccc43)cc2)cc1
structure (smiles),measurement,setting,value
CCOC(=O)c1ccc2c(c1)sc1c3ccc(C(=O)OCC)cc3n(C)c21,fluorescence lifetime,in CCCO,3.9 ns
CCCCCCCC(=O)Oc1ccc2c3cccc4c(OC(=O)CCCCCCC)ccc(c5cccc1c52)c43,fluorescence lifetime,in C1CCOC1,4.35 ns
same,fluorescence lifetime,in Cc1ccccc1,3.72 ns
same,fluorescence lifetime,in ClC(Cl)(Cl)Cl,3.89 ns
same,fluorescence lifetime,in ClC(Cl)Cl,4.16 ns
same,fluorescence lifetime,in ClCCl,4.34 ns
same,fluorescence lifetime,in c1ccncc1,3.88 ns
COc1ccc(-c2nc(-c3ccc(-c4nc(-c5ccc(OC)cc5)c(-c5ccc(OC)cc5)[nH]4)s3)[nH]c2-c2ccc(OC)cc2)cc1,fluorescence lifetime,in CC#N,1.42 ns
N#CC(C#N)=C(/C=C/c1cc2c3c(c1)CCCN3CCC2)c1ccc2c3c(cccc13)CC2,fluorescence lifetime,in C1CCOC1,5.6 ns
same,fluorescence lifetime,in CC#N,2.62 ns
same,fluorescence lifetime,in CC(C)=O,2.8 ns
same,fluorescence lifetime,in CCOC(C)=O,5.46 ns
same,fluorescence lifetime,in CN(C)C=O,2.67 ns
same,fluorescence lifetime,in CO,1.63 ns
same,fluorescence lifetime,in Cc1ccccc1,4.48 ns
same,fluorescence lifetime,in ClC(Cl)Cl,6.68 ns
CC(=O)c1ccc(-c2nc3ccc(N(C)C)cc3s2)cc1,fluorescence lifetime,in C1CCCCC1,2.2 ns
CC(C)(C)c1ccc(-c2nc3c4ccc(-c5cc6ccccc6c6ccccc56)cc4c4cc(-c5cc6ccccc6c6ccccc56)ccc4c3n2-c2ccc(C(C)(C)C)cc2)cc1,fluorescence lifetime,in ClCCl,7 ns
COc1ccc(-c2csc(/C(C#N)=C/c3ccc(C#N)cc3)n2)cc1,fluorescence lifetime,in CC#N,1.43 ns
CC(C)(C)NC(=O)c1ccc(-c2ccc(N3c4ccccc4Oc4ccccc43)cc2)c2ccc3c4ccc(F)cc4c4cc(F)ccc4c3c12,fluorescence lifetime,in ClCCl,89.3 ns
C[N+]1=c2cc3c(cc2C(C)(C)CC1)=C(c1ccccc1C(=O)O)c1cc2c(cc1O3)Oc1cc3c(cc1=C2c1ccccc1C(=O)O)C(C)(C)CC[N+]=3C,fluorescence lifetime,in ClC(Cl)Cl,2.34 ns
COc1ccc2oc(=N)c(C#N)cc2c1,fluorescence lifetime,in ClCCl,1.6 ns
COc1ccc(-c2c3cc4ccccc4cc3c(-c3ccc(OC)cc3)c3cc4ccccc4cc23)cc1,fluorescence lifetime,in ClCCl,7.8 ns
CCC1=C(C)C2C(c3ccc(-c4ccc(-c5nc6c7ccccc7c7ccccc7c6n5-c5ccc(C(C)(C)C)cc5)cc4)cc3)c3c(C)c(CC)c(C)n3[B-](F)(F)[N+]2=C1C (stereo not given),fluorescence lifetime,in ClC(Cl)Cl,17 ns
C=Cc1ccc(OC)c(OC)c1,fluorescence lifetime,in C1CCCCC1,3.3 ns
same,fluorescence lifetime,in CC#N,3.2 ns
COc1cc2c(cc1/C=C/C(=C(C#N)C#N)c1ccccc1)c1ccccc1n2C,fluorescence lifetime,in C1CCOC1,7.35 ns
same,fluorescence lifetime,in CC#N,7.64 ns
same,fluorescence lifetime,in CCO,5.52 ns
same,fluorescence lifetime,in CCOC(C)=O,6.74 ns
same,fluorescence lifetime,in CN(C)C=O,7.2 ns
same,fluorescence lifetime,in CS(C)=O,9.07 ns
same,fluorescence lifetime,in Cc1ccccc1,7.98 ns
same,fluorescence lifetime,in ClC(Cl)Cl,8.11 ns
same,fluorescence lifetime,in ClCCl,6.44 ns
c1ccc(-c2cc(-c3ccc(N4c5ccccc5C(c5ccccc5)(c5ccccc5)c5ccccc54)cc3)nc(-c3ccccc3)n2)cc1,fluorescence lifetime,in O=P(c1ccccc1)(c1ccccc1)c1ccccc1Oc1ccccc1P(=O)(c1ccccc1)c1ccccc1,8.02 ns
CCCCCCCCCCCn1cccc1C1=[N+]2C(=Cc3c(C)cc(C)n3[B-]2(F)F)c2ccccc21,fluorescence lifetime,in ClCCl,8.89 ns
Cc1ccc2c(c1)C(c1ccccc1)(c1ccccc1)c1cc(C)ccc1N2c1ccc2c(c1)Oc1ccccc1B2c1c(C(C)C)cc(C(C)C)cc1C(C)C,fluorescence lifetime,in Cc1ccccc1,23 ns
same,fluorescence lifetime,[1],28 ns
COC(=O)C(Cc1ccc2oc(-c3ccncc3)nc2c1)NC(=O)OC(C)(C)C (stereo not given),fluorescence lifetime,in CC1CCCCC1,0.609 ns
same,fluorescence lifetime,in CC#N,1.19 ns
same,fluorescence lifetime,in CO,2.17 ns
c1ccc2nc3cccc(-c4ccc(-n5c6ccccc6c6ccccc65)cc4)c3cc2c1,fluorescence lifetime,in CC#N,10.6 ns
same,fluorescence lifetime,in CCCCCC,0.2 ns
same,fluorescence lifetime,in CCOCC,0.2 ns
same,fluorescence lifetime,in ClCCl,6.68 ns
CN(C)c1ccc(C2=Nc3scc(-c4ccccc4)[n+]3[B-](F)(F)O2)cc1,fluorescence lifetime,in C1CCOC1,2.06 ns
CCCCCCN(CCCCCC)c1ccc(C#Cc2ccc(C#Cc3ccc(-c4ccc(C#Cc5ccc(C#Cc6ccc(N(CCCCCC)CCCCCC)cc6)cc5)cc4)cc3)cc2)cc1,fluorescence lifetime,in Cc1ccccc1,0.8 ns
c1ccc(Cn2c3sccc3c3c4nsnc4c4c5ccsc5n(Cc5ccccc5)c4c32)cc1,fluorescence lifetime,in Cc1ccccc1,13.5 ns
same,fluorescence lifetime,in ClCCl,16.2 ns
CCN(CC)c1ccc2cc(C#N)/c(=N\C(=O)c3ccccc3)oc2c1,fluorescence lifetime,in ClCCl,3 ns
CC1=CC(C)=[N+]2C1=C(c1ccccc1)c1c(C)cc(C)n1[B-]2(F)F,fluorescence lifetime,in C1CCOC1,3.73 ns
same,fluorescence lifetime,in CC#N,3.81 ns
same,fluorescence lifetime,in CC(=O)C(C)(C)C,3.39 ns
same,fluorescence lifetime,in CC(C)=O,3.65 ns
same,fluorescence lifetime,in CCCCCC,3.37 ns
same,fluorescence lifetime,in CCOC(C)=O,3.98 ns
same,fluorescence lifetime,in CO,3.9 ns
same,fluorescence lifetime,in Cc1ccccc1,3.4 ns
same,fluorescence lifetime,in ClCCl,3.97 ns
CC1(C)C(=O)C=Cc2ccc(O)cc21,fluorescence lifetime,in O,2.45 ns
O=S1(=O)c2ccc(-c3ccc4c(c3)c3ccccc3n4-c3ccccc3)cc2C2(c3cc(-c4ccc5c(c4)c4ccccc4n5-c4ccccc4)ccc31)c1cc(-c3ccc4c(c3)c3ccccc3n4-c3ccccc3)ccc1S(=O)(=O)c1ccc(-c3ccc4c(c3)c3ccccc3n4-c3ccccc3)cc12,fluorescence lifetime,in CC1CCCO1,100 ns
O=C1c2ccccc2-c2ccc(N3CCOCC3)c3cccc1c23,fluorescence lifetime,in ClC(Cl)Cl,10.9 ns
CCCCCCCCCCCCN1C(=O)c2ccc3c4ccc5c6c(ccc(c7ccc(c2c37)C1=O)c64)C(=O)NC5=O,fluorescence lifetime,in CN(C)C=O,3 ns
ClP1(Cl)=N[P@](Cl)(Oc2ccc3ccc4cccc5ccc2c3c45)=N[P@@](Cl)(Oc2ccc3ccc4cccc5ccc2c3c45)=N1,fluorescence lifetime,in ClCCl,3.02 ns
CCCCCCCCc1ccc(-c2ccc(/C=C(\C#N)c3ccc(-c4cccc5cccc(-c6ccc(/C(C#N)=C/c7ccc(-c8ccc(CCCCCCCC)cc8)cc7)cc6)c45)cc3)cc2)cc1,fluorescence lifetime,in Cc1ccccc1,4.9 ns
Cc1ccccc1C,fluorescence lifetime,in C1CCCCC1,51 ns
CCN(CC)c1cc2oc(=O)cc(C)c2cc1C,fluorescence lifetime,in CCO,2.56 ns
Cc1ccc2c(c1)C1(c3ccccc3-c3ccccc31)c1cc(C)ccc1N2c1ccc(-c2ncccn2)cc1,fluorescence lifetime,[1],13 ns
Cc1cc(C)c(B(c2c(C)cc(C)cc2C)c2ccc3ccc4cccc5ccc2c3c45)c(C)c1,fluorescence lifetime,in Cc1ccccc1,3 ns
Cc1cc(C)c2c(c1)c1cc(C)cc(C)c1n2-c1ccc2c(c1)Sc1cc3c(cc1B2c1c(C(C)C)cc(C(C)C)cc1C(C)C)B(c1c(C(C)C)cc(C(C)C)cc1C(C)C)c1ccccc1S3,fluorescence lifetime,in Cc1ccccc1,0.65 ns
same,fluorescence lifetime,[1],2 ns
Cc1cc(-c2nnc(-c3ccccc3)o2)ccc1-n1c2ccccc2c2ccccc21,fluorescence lifetime,in CCO,1.82 ns
Cn1c(=O)c(/N=N/c2cc(S(=O)(=O)O)ccc2C(=O)O)c(O)c2ccccc21,fluorescence lifetime,in CS(C)=O,0.06 ns
CC(C)(C)c1ccc2c(c1)c1cc(C(C)(C)C)ccc1n2-c1ccc2c(c1)C(=O)c1ccc(-n3c4ccc(C(C)(C)C)cc4c4cc(C(C)(C)C)ccc43)cc1C2=O,fluorescence lifetime,in Cc1ccccc1,7.5 ns
same,fluorescence lifetime,[2],10.4 ns
COc1ccc(C#Cc2c3ccccc3c(C#Cc3ccc(OC)cc3)c3cc4sc(C)cc4cc23)cc1,fluorescence lifetime,in ClCCl,5.3 ns
CC(=O)Nc1ccccc1C(=O)OC1CC(C)CCC1C(C)C (stereo not given),fluorescence lifetime,in C1CCCCC1,4 ns
same,fluorescence lifetime,in CC#N,3.4 ns
same,fluorescence lifetime,in CCO,3.6 ns
same,fluorescence lifetime,in Cc1ccccc1,3.9 ns
Cc1ccc(/C2=c3\cc/c(o3)=C(\c3ccc(C)cc3)c3ccc([nH]3)-c3ccc4n3[P-](=O)(=O)[N+]3=C(C=CC3=C4c3ccc[nH]3)c3ccc2[nH]3)cc1,fluorescence lifetime,in ClC(Cl)Cl,4 ns
CCCCCCC1(CCCCCC)c2ccccc2-c2ccc(-c3ccc(-c4cc(-c5ccccn5)nc(-c5ccccn5)c4)cc3)cc21,fluorescence lifetime,in ClCCl,0.77 ns
CCCCCc1c(C(=O)c2ccc3c4c(cccc24)-c2cccc4c2C3CC=C4)c2ccc3cccc4c5cccc6ccc1c(c65)c2c34 (stereo not given),fluorescence lifetime,in ClCCl,1.09 ns
Cc1ccc(C(=O)NN2C3=C(CC4=C2CCCC4=O)C(=O)CCC3)cc1,fluorescence lifetime,in C1CCOC1,4.1 ns
same,fluorescence lifetime,in CC#N,5.9 ns
same,fluorescence lifetime,in CC(C)=O,5.1 ns
same,fluorescence lifetime,in CCCCCO,5.9 ns
same,fluorescence lifetime,in CO,4.6 ns
same,fluorescence lifetime,in ClC(Cl)Cl,7.9 ns
same,fluorescence lifetime,in ClCCl,5.3 ns
C(=C\c1ccc(/C=C/c2ccc(N(c3ccccc3)c3ccccc3)cc2)c2nsnc12)/c1ccc(N(c2ccccc2)c2ccccc2)cc1,fluorescence lifetime,in C1CCOC1,4.53 ns
same,fluorescence lifetime,in CCOC(C)=O,4.74 ns
same,fluorescence lifetime,in CN(C)C=O,2.75 ns
same,fluorescence lifetime,in Cc1ccccc1,4.29 ns
same,fluorescence lifetime,in ClC(Cl)Cl,4.21 ns
same,fluorescence lifetime,in ClCCl,4.1 ns
COc1ccc(-c2cc3c(s2)c(-c2ccccc2)cc(=O)n3C)cc1,fluorescence lifetime,in ClCCl,4.69 ns
O=C1c2ccc(N(c3ccccc3)c3ccccc3)cc2C(=O)c2ccc(N(c3ccccc3)c3ccccc3)cc21,fluorescence lifetime,in Cc1ccccc1,5.3 ns
same,fluorescence lifetime,[2],4.9 ns
CCOC(=O)C1=CN(Cc2ccccc2)C=C(C(=O)OCC)C1,fluorescence lifetime,in C1CCOC1,25.6 ns
same,fluorescence lifetime,in CO,28.2 ns
COc1ccc(C2=Cc3ccc4ccccc4[n+]3[B-](F)(F)O2)cc1,fluorescence lifetime,in ClC(Cl)Cl,2.3 ns
CC1(C)c2ccccc2N(c2ccc(C(=C(C#N)C#N)c3ccc(N4c5ccccc5C(C)(C)c5ccccc54)cc3)cc2)c2ccccc21,fluorescence lifetime,in Cc1ccccc1,3.1 ns
O=Cc1ccc(C#CC(C#Cc2ccc(C=O)o2)=Cc2ccc(C=C(C#Cc3ccc(C=O)o3)C#Cc3ccc(C=O)o3)cc2)o1,fluorescence lifetime,in ClC(Cl)Cl,0.6 ns
c1ccc(Nc2nc(Nc3ccccc3)nc(Nc3cc4ccc5cccc6ccc(c3)c4c56)n2)cc1,fluorescence lifetime,in CCCCCCC,102 ns
CC1(CCCCC(=O)NCCCCCCO)C(/C=C/C=C/C=C2/N(CCCS(=O)(=O)[O-])c3ccc(S(=O)(=O)[O-])cc3C2(C)C)=[N+](CCCS(=O)(=O)[O-])c2ccc(S(=O)(=O)[O-])cc21 (stereo not given),fluorescence lifetime,in O,1 ns
FC(F)(F)c1ccc(/C=C/c2ccc(-c3nnc(-c4ccc(-c5cc6ccccc6s5)cc4)o3)cc2)cc1,fluorescence lifetime,in Cc1ccccc1,0.57 ns
same,fluorescence lifetime,in ClC(Cl)Cl,0.7 ns
CCOc1ccc(/C=C/c2nc(N3CCOCC3)c3c([n+]2[O-])CCCC3)cc1,fluorescence lifetime,in ClCCl,8.2 ns
N#CC(C#N)=C(/C=C/c1ccc(N(c2ccccc2)c2ccccc2)cc1)c1ccc2c3c(cccc13)CC2,fluorescence lifetime,in C1CCOC1,3.5 ns
same,fluorescence lifetime,in CC#N,1.22 ns
same,fluorescence lifetime,in CC(C)=O,1.04 ns
same,fluorescence lifetime,in CCOC(C)=O,3.01 ns
same,fluorescence lifetime,in CN(C)C=O,1.02 ns
same,fluorescence lifetime,in CO,2.1 ns
same,fluorescence lifetime,in Cc1ccccc1,2.26 ns
same,fluorescence lifetime,in ClC(Cl)Cl,6.54 ns
CCN(CC)c1ccc2cc(C#N)c(=N)oc2c1,fluorescence lifetime,in ClCCl,2.9 ns
CCCCCCCCCCCCOc1cc2c3c(ccc4c5c(OC6CCC(C(C)(C)C)CC6)cc6c7c(ccc(c1c34)c75)C(=O)N(C1CCCCC1)C6=O)C(=O)N(C1CCCCC1)C2=O (stereo not given),fluorescence lifetime,in ClC(Cl)Cl,5 ns
